# Values quoted from earlier work as cited in patent EP0640130B1, “CHIMERIC M[…] ANALOGUES AND METHODS OF USE THEREOF” (CREATIVE BIOMOLECULES, INC., priority 1992, dated 1993).
# Target: 26-10 sFv (anti-digoxin single-chain Fv)
compound,measurement,value
C[C@@H]1O[C@@H](O[C@H]2C[C@@H](O)[C@]3(CO)[C@H]4[C@H](O)C[C@]5(C)[C@@H](C6=CC(=O)OC6)CC[C@]5(O)[C@@H]4CC[C@]3(O)C2)[C@H](O)[C@H](O)[C@H]1O [Ouabain],Ka for association with 26-10 sFv,about 10^7 M^-1
